Where a SMILES comes first, the peptide text is derived from it.
How the values were obtained:
EV71-2A^pro [1] = biological target: T1, EV71-2A^pro (Human enterovirus 71, UniProt Q66478); test: Kinetic activity assay; format: biochemical; settings: from Km values, relative to native substrate (Km 21.3 μM)
T1 sequence (Q66478 863-1012 limits assumed): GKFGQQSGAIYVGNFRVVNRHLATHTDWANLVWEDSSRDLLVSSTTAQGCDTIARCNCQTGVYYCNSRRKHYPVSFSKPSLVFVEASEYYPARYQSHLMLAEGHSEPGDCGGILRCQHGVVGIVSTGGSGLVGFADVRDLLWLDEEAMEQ

EV71-2A^pro [2] = biological target: T1, EV71-2A^pro; test: EV71-2Apro inhibition assay; format: biochemical

Row | Compound | higher affinity for EV71-2A^pro than the native substrate (EV71-2A^pro [1]) [fold] | IC50 (EV71-2A^pro [2]) [µM]
1 | Dabcyl-RDKIGFRGKFGQDE-Edans-NH2 [Pseudosubstrate II] | 3 | –
2 | CC[C@H](C)[C@H](NC(=O)[C@H](CCCCN)NC(=O)[C@H](CC(=O)O)NC(=O)[C@@H](N)CCCNC(=N)N)C(=O)NCC(=O)N[C@@H](Cc1ccccc1)C(=O)N[C@@H](CCCNC(=N)N)C(=O)NCC(=O)N[C@@H](CCCCN)C(=O)N[C@@H](Cc1ccccc1)C(=O)NCC(=O)N[C@@H](CCC(N)=O)C(=O)O [Peptide II] (H-RDKIGFRGKFGQ-OH) | – | 12.1 ± 1.2
